What was measured:
mTOR = mTOR (Homo sapiens, UniProt P42345); assay: mTOR kinase inhibition, Lance Ultra assay; assay type: biochemical
MDA-MB-231 cells = assay: Cell viability CCK-8 assay; assay type: cell-based, human; details: Homo sapiens, MDA-MB-231, 48 h, read-out: Antiproliferative IC50 ± SD
[1] = mTOR, IC50, mean ± SD of triplicate measurements

SMILES	IC50 (mTOR; [1]) [µM]	also measured
Nc1ccccc1/N=c1\cc(-c2ccc3c(c2)OCO3)oc2ccccc12 [Compound 4a]	1.54 ± 0.0211	IC50 (mTOR; mTOR IC50, text and Fig. 3A): 1.5 µM
NCC(=O)Nc1ccccc1/N=c1\cc(-c2ccc3c(c2)OCO3)oc2ccccc12 [Compound 5a, (E)-2-amino-N-(2-((2-(benzo[d][1,3]dioxol-5-yl)-4H-chromen-4-ylidene)amino)phenyl)acetamide]	0.719 ± 0.0074	
NCCC(=O)Nc1cccc(/N=c2\cc(-c3ccc4c(c3)OCO4)oc3ccccc23)c1 [Compound 5ab, (E)-3-amino-N-(3-((2-(benzo[d][1,3]dioxol-5-yl)-4H-chromen-4-ylidene)amino)phenyl)propanamide]	> 10	
NCCC(=O)Nc1ccc(/N=c2\cc(-c3ccc4c(c3)OCO4)oc3ccccc23)cc1 [Compound 5ac, (E)-3-amino-N-(4-((2-(benzo[d][1,3]dioxol-5-yl)-4H-chromen-4-ylidene)amino)phenyl)propanamide]	> 10	
C[C@H](N)C(=O)Nc1ccccc1/N=c1\cc(-c2ccc3c(c2)OCO3)oc2ccccc12 [Compound 5b, (S,E)-2-amino-N-(2-((2-(benzo[d][1,3]dioxol-5-yl)-4H-chromen-4-ylidene)amino)phenyl)propanamide]	3.19 ± 0.194	
N[C@@H](CO)C(=O)Nc1ccccc1/N=c1\cc(-c2ccc3c(c2)OCO3)oc2ccccc12 [Compound 5c, (S,E)-2-amino-N-(2-((2-(benzo[d][1,3]dioxol-5-yl)-4H-chromen-4-ylidene)amino)phenyl)-3-hydroxypropanamide]	> 10	
COCCC(=O)Nc1ccccc1/N=c1\cc(-c2ccc3c(c2)OCO3)oc2ccccc12 [Compound 5d, (E)-N-(2-((2-(benzo[d][1,3]dioxol-5-yl)-4H-chromen-4-ylidene)amino)phenyl)-3-methoxypropanamide]	> 10	
NCCC(=O)Nc1ccccc1/N=c1\cc(-c2ccc3c(c2)OCO3)oc2ccccc12 [Compound 5e, (E)-3-amino-N-(2-((2-(benzo[d][1,3]dioxol-5-yl)-4H-chromen-4-ylidene)amino)phenyl)propanamide]	0.317 ± 0.0191	
NCCCC(=O)Nc1ccccc1/N=c1\cc(-c2ccc3c(c2)OCO3)oc2ccccc12 [Compound 5f, (E)-4-amino-N-(2-((2-(benzo[d][1,3]dioxol-5-yl)-4H-chromen-4-ylidene)amino)phenyl)butanamide]	8.19 ± 1.85	
NCCCCC(=O)Nc1ccccc1/N=c1\cc(-c2ccc3c(c2)OCO3)oc2ccccc12 [Compound 5g, (E)-5-amino-N-(2-((2-(benzo[d][1,3]dioxol-5-yl)-4H-chromen-4-ylidene)amino)phenyl)pentanamide]	> 10	
O=C(Nc1ccccc1/N=c1\cc(-c2ccc3c(c2)OCO3)oc2ccccc12)N1CCOCC1 [Compound 5h, (E)-N-(2-((2-(benzo[d][1,3]dioxol-5-yl)-4H-chromen-4-ylidene)amino)phenyl)morpholine-4-carboxamide]	> 10	
O=C(Nc1ccccc1/N=c1\cc(-c2ccc3c(c2)OCO3)oc2ccccc12)N1CCNCC1 [Compound 5i, (E)-N-(2-((2-(benzo[d][1,3]dioxol-5-yl)-4H-chromen-4-ylidene)amino)phenyl)piperazine-1-carboxamide]	7.47 ± 0.139	
CC(C)(C)[C@H](N)C(=O)Nc1ccccc1/N=c1\cc(-c2ccc3c(c2)OCO3)oc2ccccc12 [Compound 5j, (S,E)-2-amino-N-(2-((2-(benzo[d][1,3]dioxol-5-yl)-4H-chromen-4-ylidene)amino)phenyl)-3,3-dimethylbutanamide]	> 10	
NCC(=O)Nc1ccccc1/N=c1\cc(-c2ccc3c(c2)OCO3)oc2c(N)cccc12 [Compound 5m, (E)-2-amino-N-(2-((2-(benzo[d][1,3]dioxol-5-yl)-8-amino-4H-chromen-4-ylidene)amino)phenyl)acetamide]	6.16 ± 1.11	
NCC(=O)Nc1ccccc1/N=c1\cc(-c2ccc3c(c2)OCCO3)oc2ccccc12 [Compound 5p, (E)-2-amino-N-(2-((2-(2,3-dihydrobenzo[b][1,4]dioxin-6-yl)-4H-chromen-4-ylidene)amino)phenyl)acetamide]	1.52 ± 0.121	
C[C@H](N)C(=O)Nc1ccccc1/N=c1\cc(-c2ccc3c(c2)OCCO3)oc2c([N+](=O)[O-])cccc12 [Compound 5q, (S,E)-2-amino-N-(2-((2-(2,3-dihydrobenzo[b][1,4]dioxin-6-yl)-8-nitro-4H-chromen-4-ylidene)amino)phenyl)propanamide]	> 10	
C[C@H](N)C(=O)Nc1ccccc1/N=c1\cc(-c2ccc3c(c2)OCCO3)oc2c(N)cccc12 [Compound 5r, (S,E)-2-amino-N-(2-((8-amino-2-(2,3-dihydrobenzo[b][1,4]dioxin-6-yl)-4H-chromen-4-ylidene)amino)phenyl)propanamide]	> 10	
COc1ccc2/c(=N/c3ccccc3NC(=O)[C@H](C)N)cc(-c3ccc4c(c3)OCCO4)oc2c1 [Compound 5s, (S,E)-2-amino-N-(2-((2-(2,3-dihydrobenzo[b][1,4]dioxin-6-yl)-7-methoxy-4H-chromen-4-ylidene)amino)phenyl)propanamide]	> 10	
COc1ccc2/c(=N/c3ccccc3NC(=O)CN)cc(-c3ccc4c(c3)OCCO4)oc2c1 [Compound 5t, (E)-2-amino-N-(2-((2-(2,3-dihydrobenzo[b][1,4]dioxin-6-yl)-7-methoxy-4H-chromen-4-ylidene)amino)phenyl)acetamide]	> 10	
C[C@H](N)C(=O)Nc1ccccc1/N=c1\cc(-c2ccc3c(c2)OCCO3)oc2cc(F)ccc12 [Compound 5x, (S,E)-2-amino-N-(2-((2-(2,3-dihydrobenzo[b][1,4]dioxin-6-yl)-7-fluoro-4H-chromen-4-ylidene)amino)phenyl)propanamide]	> 10	
NCC(=O)Nc1ccccc1/N=c1\cc(-c2ccc3c(c2)OCCO3)oc2cc(F)ccc12 [Compound 5y, (E)-2-amino-N-(2-((2-(2,3-dihydrobenzo[b][1,4]dioxin-6-yl)-7-fluoro-4H-chromen-4-ylidene)amino)phenyl)acetamide]	> 10	
CCNc1nc2ccc(-c3c/c(=N\c4ccccc4NC(=O)CCN)c4ccccc4o3)cc2o1 [Compound 15, (E)-3-amino-N-(2-((2-(2-(ethylamino)benzo[d]oxazol-6-yl)-4H-chromen-4-ylidene)amino)phenyl)propanamide]	2.66 ± 0.38	
NCCC(=O)Nc1ccccc1/N=c1\cc(-c2ccc3oc(N)nc3c2)oc2ccccc12 [Compound 21, (E)-3-amino-N-(2-((2-(2-aminobenzo[d]oxazol-5-yl)-4H-chromen-4-ylidene)amino)phenyl)propanamide]	0.696 ± 0.0582	fold decrease in kinase inhibitory activity (mTOR) (mTOR; vs 12a): 15.4 fold
CO[C@H]1C[C@@H]2CC[C@@H](C)[C@@](O)(O2)C(=O)C(=O)N2CCCC[C@H]2C(=O)O[C@H]([C@H](C)C[C@@H]2CC[C@@H](OCCO)[C@H](OC)C2)CC(=O)[C@H](C)/C=C(\C)[C@@H](O)[C@@H](OC)C(=O)[C@H](C)C[C@H](C)/C=C/C=C/C=C/1C [Everolimus, reference compound]		IC50 (MDA-MB-231 cells): 2.29 ± 0.0763 µM
CC(C)n1nc(-c2ccc3oc(N)nc3c2)c2c(N)ncnc21 [MLN-0128, reference compound]		IC50 (MDA-MB-231 cells): 0.179 ± 0.238 µM
CC(=O)O[C@H]1C(=O)[C@@]2(C)[C@H]([C@H](OC(=O)c3ccccc3)[C@]3(O)C[C@H](OC(=O)[C@H](O)[C@@H](NC(=O)c4ccccc4)c4ccccc4)C(C)=C1C3(C)C)[C@]1(OC(C)=O)CO[C@@H]1C[C@@H]2O [Paclitaxel, reference compound]		IC50 (MDA-MB-231 cells): 3.862 ± 0.0132 µM

More lines, main results first:

IC50 (mTOR; [1]) [µM]	SMILES	also measured
3.37 ± 0.334	COCCC(=O)Nc1ccccc1/N=c1\cc(-c2ccc3nc(N)oc3c2)oc2ccccc12 [Compound 12b, (E)-N-(2-((2-(2-aminobenzo[d]oxazol-6-yl)-4H-chromen-4-ylidene)amino)phenyl)-3-methoxypropanamide]	
3.39 ± 0.164	CS(=O)(=O)NCCC(=O)Nc1ccccc1/N=c1\cc(-c2ccc3nc(N)oc3c2)oc2ccccc12 [Compound 12d, (E)-N-(2-((2-(2-aminobenzo[d]oxazol-6-yl)-4H-chromen-4-ylidene)amino)phenyl)-3-(methylsulfonamido)propanamide]	
2.61 ± 0.201	CN(C)CCC(=O)Nc1ccccc1/N=c1\cc(-c2ccc3nc(N)oc3c2)oc2ccccc12 [Compound 12e, (E)-N-(2-((2-(2-aminobenzo[d]oxazol-6-yl)-4H-chromen-4-ylidene)amino)phenyl)-3-(dimethylamino)propanamide]	
> 10	CCN(CC)CCC(=O)Nc1ccccc1/N=c1\cc(-c2ccc3nc(N)oc3c2)oc2ccccc12 [Compound 12f, (E)-N-(2-((2-(2-aminobenzo[d]oxazol-6-yl)-4H-chromen-4-ylidene)amino)phenyl)-3-(diethylamino)propanamide]	
> 10	Nc1nc2ccc(-c3c/c(=N\c4ccccc4NC(=O)CCN4CCCC4)c4ccccc4o3)cc2o1 [Compound 12g, (E)-N-(2-((2-(2-aminobenzo[d]oxazol-6-yl)-4H-chromen-4-ylidene)amino)phenyl)-3-(pyrrolidin-1-yl)propanamide]	
> 10	Nc1nc2ccc(-c3c/c(=N\c4ccccc4NC(=O)CCN4CCOCC4)c4ccccc4o3)cc2o1 [Compound 12h, (E)-N-(2-((2-(2-aminobenzo[d]oxazol-6-yl)-4H-chromen-4-ylidene)amino)phenyl)-3-morpholinopropanamide]	
1.24 ± 0.0861	N#Cc1ccc2oc(-c3ccc4nc(N)oc4c3)c/c(=N\c3ccccc3NC(=O)CCN)c2c1 [Compound 12l, (E)-3-amino-N-(2-((2-(2-aminobenzo[d]oxazol-6-yl)-6-cyano-4H-chromen-4-ylidene)amino)phenyl)propanamide]	
9.34 ± 0.748	NCCC(=O)Nc1ccccc1/N=c1\cc(-c2ccc3nc(N)oc3c2)oc2cc(Br)ccc12 [Compound 12o, (E)-3-amino-N-(2-((2-(2-aminobenzo[d]oxazol-6-yl)-7-bromo-4H-chromen-4-ylidene)amino)phenyl)propanamide]	
